Measurements as given in patent US20230146455A1, “TREATMENT OF INFLAMMATORY DISEASES WITH PEPTIDES AND PHARMACEUTICAL COMPOSITIONS” (Yuyu Pharma, Inc., priority 2020, published 2023).
Values joined by “and” are separate entries in the source; they are usually repeats but may differ in a detail not shown here. Equal entries are not always repeated. Where a SMILES comes first, the peptide text is derived from it. [ ]: non-standard residue; d: D form. Hyp = O=C(O)[C@@H]1C[C@@H](O)CN1

Test system: TIMP-1
Test: Example 9 Luminex, LPS hPBMCs: TIMP-1
Format: cell-based, human
Conditions: PBMC + LPS(5 ug/ml)
Procedure: Treatment Human PBMCs were pretreated with YY-101, YDE-011 and YDE-043 or reference compound; Xiidra® at various concentration (ranging from 1 nM to 100 uM) for 2 h before stimulation. An equal volume of 0.5% DMSO was used as a vehicle control. Then, the cells were treated with LPS at 5 ug/ml. The supernatants from treated cells were harvested at 24 h and placed in a 96 well for Luminex cytokine & chemokine profiling using a Luminex 200 multiplex assay (Luminex; R&D system, USA).
The main study arm with triplicate wells per group in a 24-well plate: • 1. Blank • 2. PBMC: 0.5% DMSO • 3. PBMC+LPS (5 ug/ml) • 4. PBMC+YY-101 100 uM • 5. PBMC+YY-101 10 uM • 6. PBMC+YY-101 1 uM • 7. PBMC+YY-101 0.1 uM • 8. PBMC+YY-101 0.01 uM • 9. PBMC+LPS (5 ug/ml)+Xiidra®100 uM • 10. PBMC+LPS (5 ug/ml)+Xiidra® 10 uM • 11. PBMC+LPS (5 ug/ml)+Xiidra® 1 uM • 12. PBMC+LPS (5 ug/ml)+Xiidra®0.1 uM • 13. PBMC+LPS (5 ug/ml)+Xiidra®0.01 uM • 14. PBMC+LPS (5 ug/ml)+Xiidra®0.001 uM • 15. PBMC+LPS (5 ug/ml)+YY-101 100 uM • 16. PBMC+LPS (5 ug/ml)+YY-101 10 uM • 17. PBMC+LPS (5 ug/ml)+YY-101 1 uM • 18. PBMC+LPS (5 ug/ml)+YY-101 0.1 uM • 19. PBMC+LPS (5 ug/ml)+YY-101 0.01 uM • 20. PBMC+LPS (5 ug/ml)+YY-101 0.001 uM • 21. PBMC+LPS (5 ug/ml)+YDE-011 100 uM • 22. PBMC+LPS (5 ug/ml)+YDE-011 10 uM • 23. PBMC+LPS (5 ug/ml)+YDE-011 1 uM • 24. PBMC+LPS (5 ug/ml)+YDE-011 0.1 uM • 25. PBMC+LPS (5 ug/ml)+YDE-011 0.01 uM • 26. PBMC+LPS (5 ug/ml)+YDE-011 0.001 uM • 27. PBMC+LPS (5 ug/ml)+YDE-043 100 uM • 28. PBMC+LPS (5 ug/ml)+YDE-043 10 uM • 29. PBMC+LPS (5 ug/ml)+YDE-043 1 uM • 30. PBMC+LPS (5 ug/ml)+YDE-043 0.1 uM • 31. PBMC+LPS (5 ug/ml)+YDE-043 0.01 uM • 32. PBMC+LPS (5 ug/ml)+YDE-043 0.001 uM
Multiplex assay was used to measure 30 cytokines and chemokines. The 1:2, 1:10 and 1:200 diluted cell supernatant and serial dilution of the standard were dispensed into a 96 well plate at 50 ul/well. Then, the pre-mixed cocktail of antibody-coated magnetic beads was dispensed at 50 ul/well and incubated at room temperature for 2 h in a horizontal orbital microplate shaker at 800±500 rpm. The beads were washed using a magnetic device to prevent loss. The biotin-antibody was dispensed in 50 ul of each well and incubated at room temperature for 1 h in a shaker at 800±500 rpm. After washing, streptavidin-PE was added at 50 ul/well and incubated at room temperature for 30 min in a shaker under the same conditions. Finally, after washing, wash buffer (100 ul/well) was added to the plate and incubated in a shaker for 2 min. The Luminex™ 200 setting were set according to the manufacturer's protocol. The data was calculated with a standard five-parameter logistic nonlinear regression analysis of the data (xPonent software 4.2, USA). The levels of cytokine/chemokine are normalized to the live cell counts (1×10^5 cells/mL) and presented as concentrations per mL (pg/mL or ng/mL).

[1] = test article 0.001 uM, single replicates
[2] = test article 0.01 uM, single replicates
[3] = test article 0.1 uM, single replicates
[4] = test article 1 uM, single replicates
[5] = test article 10 uM, single replicates
[6] = test article 100 uM, single replicates

Structure (SMILES): CC(C)C[C@H](NC(=O)CNC(=O)[C@H](CC(C)C)NC(=O)[C@H](CCC(N)=O)NC(=O)CNC(=O)[C@@H]1C[C@@H](O)CN1)C(=O)N[C@@H](C)C(=O)NCC(=O)N1CCC[C@H]1C(=O)N[C@@H](CCCCN)C(=O)O [YDE-011] (H-[Hyp]GQLGLAGPK-OH)
- TIMP-1 Concentration (test article 0.001 uM, Mean): 1792.7 pg/mL
- TIMP-1 MFI (test article 0.001 uM, Mean): 946.7
- TIMP-1 conc/live cell (test article 0.001 uM, Mean): 339.5 pg/10^5
- TIMP-1 Concentration [1]: 1831.6 pg/mL and 1659.9 pg/mL and 1886.6 pg/mL
- TIMP-1 MFI [1]: 974.0 and 852.5 and 1013.5
- TIMP-1 conc/live cell [1]: 407.0 pg/10^5 and 286.2 pg/10^5 and 325.3 pg/10^5
- TIMP-1 Concentration (test article 0.01 uM, Mean): 1879.9 pg/mL
- TIMP-1 MFI (test article 0.01 uM, Mean): 1009.2
- TIMP-1 conc/live cell (test article 0.01 uM, Mean): 325.5 pg/10^5
- TIMP-1 Concentration [2]: 1811.3 pg/mL and 2050.0 pg/mL and 1778.3 pg/mL
- TIMP-1 MFI [2]: 959.5 and 1132.0 and 936.0
- TIMP-1 conc/live cell [2]: 292.1 pg/10^5 and 402.0 pg/10^5 and 282.3 pg/10^5
- TIMP-1 Concentration (test article 0.1 uM, Mean): 1831.1 pg/mL
- TIMP-1 MFI (test article 0.1 uM, Mean): 974.2
- TIMP-1 conc/live cell (test article 0.1 uM, Mean): 320.0 pg/10^5
- TIMP-1 Concentration [3]: 1879.7 pg/mL and 1677.8 pg/mL and 1935.9 pg/mL
- TIMP-1 MFI [3]: 1008.5 and 865.0 and 1049.0
- TIMP-1 conc/live cell [3]: 284.8 pg/10^5 and 335.6 pg/10^5 and 339.6 pg/10^5
- TIMP-1 Concentration (test article 1 uM, Mean): 1791.4 pg/mL
- TIMP-1 MFI (test article 1 uM, Mean): 945.5
- TIMP-1 conc/live cell (test article 1 uM, Mean): 356.7 pg/10^5
- TIMP-1 Concentration [4]: 1869.9 pg/mL and 1750.8 pg/mL and 1753.6 pg/mL
- TIMP-1 MFI [4]: 1001.5 and 916.5 and 918.5
- TIMP-1 conc/live cell [4]: 340.0 pg/10^5 and 364.7 pg/10^5 and 365.3 pg/10^5
- TIMP-1 Concentration (test article 10 uM, Mean): 1768.2 pg/mL
- TIMP-1 MFI (test article 10 uM, Mean): 929.0
- TIMP-1 conc/live cell (test article 10 uM, Mean): 335.3 pg/10^5
- TIMP-1 Concentration [5]: 1820.4 pg/mL and 1794.4 pg/mL and 1689.9 pg/mL
- TIMP-1 MFI [5]: 966.0 and 947.5 and 873.5
- TIMP-1 conc/live cell [5]: 337.1 pg/10^5 and 309.4 pg/10^5 and 359.5 pg/10^5
- TIMP-1 Concentration (test article 100 uM, Mean): 2184.4 pg/mL
- TIMP-1 MFI (test article 100 uM, Mean): 1231.0
- TIMP-1 conc/live cell (test article 100 uM, Mean): 360.0 pg/10^5
- TIMP-1 Concentration [6]: 2326.8 pg/mL and 2121.7 pg/mL and 2104.6 pg/mL
- TIMP-1 MFI [6]: 1336.5 and 1184.5 and 1172.0
- TIMP-1 conc/live cell [6]: 381.4 pg/10^5 and 347.8 pg/10^5 and 350.8 pg/10^5

Structure (SMILES): CC(C)C[C@H](NC(=O)[C@H](CCC(N)=O)NC(=O)CNC(=O)[C@@H]1C[C@@H](O)CN1)C(=O)NCC(=O)O [YDE-043] (H-[Hyp]GQLG-OH; N-terminus and C-terminus assumed)
- TIMP-1 Concentration (test article 0.001 uM, Mean): 2001.5 pg/mL
- TIMP-1 MFI (test article 0.001 uM, Mean): 1096.8
- TIMP-1 conc/live cell (test article 0.001 uM, Mean): 406.7 pg/10^5
- TIMP-1 Concentration [1]: 1887.3 pg/mL and 2046.6 pg/mL and 2070.5 pg/mL
- TIMP-1 MFI [1]: 1014.0 and 1129.5 and 1147.0
- TIMP-1 conc/live cell [1]: 428.9 pg/10^5 and 341.1 pg/10^5 and 450.1 pg/10^5
- TIMP-1 Concentration (test article 0.01 uM, Mean): 1986.7 pg/mL
- TIMP-1 MFI (test article 0.01 uM, Mean): 1085.8
- TIMP-1 conc/live cell (test article 0.01 uM, Mean): 380.0 pg/10^5
- TIMP-1 Concentration [2]: 2007.5 pg/mL and 1991.7 pg/mL and 1960.7 pg/mL
- TIMP-1 MFI [2]: 1101.0 and 1089.5 and 1067.0
- TIMP-1 conc/live cell [2]: 446.1 pg/10^5 and 301.8 pg/10^5 and 392.1 pg/10^5
- TIMP-1 Concentration (test article 0.1 uM, Mean): 1829.5 pg/mL
- TIMP-1 MFI (test article 0.1 uM, Mean): 972.8
- TIMP-1 conc/live cell (test article 0.1 uM, Mean): 339.9 pg/10^5
- TIMP-1 Concentration [3]: 1850.4 pg/mL and 1718.3 pg/mL and 1919.9 pg/mL
- TIMP-1 MFI [3]: 987.5 and 893.5 and 1037.5
- TIMP-1 conc/live cell [3]: 370.1 pg/10^5 and 306.8 pg/10^5 and 342.8 pg/10^5
- TIMP-1 Concentration (test article 1 uM, Mean): 1838.3 pg/mL
- TIMP-1 MFI (test article 1 uM, Mean): 979.0
- TIMP-1 conc/live cell (test article 1 uM, Mean): 348.3 pg/10^5
- TIMP-1 Concentration [4]: 1928.2 pg/mL and 1809.9 pg/mL and 1776.9 pg/mL
- TIMP-1 MFI [4]: 1043.5 and 958.5 and 935.0
- TIMP-1 conc/live cell [4]: 332.5 pg/10^5 and 377.1 pg/10^5 and 335.3 pg/10^5
- TIMP-1 Concentration (test article 10 uM, Mean): 1844.9 pg/mL
- TIMP-1 MFI (test article 10 uM, Mean): 983.7
- TIMP-1 conc/live cell (test article 10 uM, Mean): 342.1 pg/10^5
- TIMP-1 Concentration [5]: 1853.9 pg/mL and 1912.3 pg/mL and 1768.4 pg/mL
- TIMP-1 MFI [5]: 990.0 and 1032.0 and 929.0
- TIMP-1 conc/live cell [5]: 356.5 pg/10^5 and 354.1 pg/10^5 and 315.8 pg/10^5
- TIMP-1 Concentration (test article 100 uM, Mean): 2156.3 pg/mL
- TIMP-1 MFI (test article 100 uM, Mean): 1210.3
- TIMP-1 conc/live cell (test article 100 uM, Mean): 342.6 pg/10^5
- TIMP-1 Concentration [6]: 2247.5 pg/mL and 2065.1 pg/mL
- TIMP-1 MFI [6]: 1277.5 and 1143.0
- TIMP-1 conc/live cell [6]: 362.5 pg/10^5 and 322.7 pg/10^5
